Consider five compounds from patent US20180222953A1, “SARCOMERE BIOSENSOR AND METHODS OF USE THEREOF” (REGENTS OF THE UNIVERSITY OF MINNESOTA, priority 2017, published 2018).

Entries after “also recorded” stand apart in the source; their conditions may differ.

Assay [1] relates to isolated adult cardiac myocytes. The assay is described as follows: Sarcomere length (SL) shortening in isolated Sarcometer Tg cardiac myocytes before and after treatment. As to conditions: 0.2 Hz stimulation; for SL contractile amplitude: 37° C. Format: cell-based, mouse. On the procedure:
Mice were injected with 0.25 cc 10,000U/ml heparin (McKesson cat#NDC 63739-964-25) and anesthetized 10 minutes later with 0.15 cc 50 mg/ml sodium pentobarbital (Vortech Pharmaceuticals). The heart was rapidly excised and placed in ice cold Krebs-Henseleit buffer (Sigma cat#K3753) modified with 25 mM HEPES (Sigma cat#H4034), 10 mM 2,3-Butanedione monoxime (Sigma cat#B0753), 30 mM Taurine (Sigma cat#T0625) and the aorta was cannulated. The mounted heart was placed on a perfusion system at 37° C. The heart was perfused with calcium free modified Krebs-Henseleit buffer with 2 mg/ml crudely purified collagenase for 10 minutes. The heart was then removed from the cannula, the atria were removed and the ventricles were dissected into pieces approximately 2 mm in diameter. The dissected ventricular tissue was then gently mechanically triturated in collagenase to liberate isolated myocytes. After brief low-speed centrifugation, isolated myocytes were resuspended in nominal calcium and 0.025 mg/ml bovine serum albumin (HyClone cat#SH30574.03) in a modified Kreb-Henseleit buffer. After the final trituration step, calcium was added back to the buffer step wise until reaching a final concentration of 2 mM CaCl2. Myocytes were plated on laminin-coated (ThermoFisher cat#23017015) glass coverslips in M199 media (Gibco cat#31100-035) containing 5% fetal bovine serum (HyClone cat#SH30071.03) and incubated for one hour at 37° C. with 5% CO2. After the one hour incubation, the media was changed to serum free M199 media and the myocytes were used for experiments within 5 hours.
(§1) For real-time simultaneous sarcomere length and biosensor measurements, a modified Ionoptix Calcium and Contractility system was used. Sarcomere length changes were detected at 240 Hz sampling rate and fluorescence measurements were detected at 1000 Hz sampling rate with two photomultipler tubes. Measurements were made at 37° C. and a stimulation frequency of 0.2 Hz unless specified otherwise. For biosensor measurements, a Xenon arc lamp was used and filtered with a 500/10 nm hard-coated bandpass filter before entering the microscope turret. The microscope turret featured a 505 dichroic long pass filter. Fluorescent light from the sample was shunted through microscope side port where it was split by a dichroic mirror with light above 650 nm going towards the Myocam for sarcomere length detection and light below 650 nm being further shunted to an additional filter cube. In this final filter cube, a 565 nm dichroic long pass mirror split the light again. Light with wavelengths below 565 nm corresponding to the Clover protein was further cleaned up by a 534/20 nm hard-coated bandpass filter before reaching the photomultiplier tuber and light with wavelengths above 565 nm was further cleaned up by a 592/43 nm hard-coated bandpass filter before reaching the photomultiplier tube. For calcium fluorescence measurements, the mouse myocytes were pre-loaded for 20 minutes in M199 solution containing 1 μM Fura-2 AM (ThermoFisher Cat #F1221), and a ten minute period was allowed for deesterification. For calcium fluorescence measurements the 360/380 nm ratio was determined. For each myocyte, several contractions were measured, averaged, and analyzed using the IonWizard software.
Eight to twelve week old mice of both sexes were injected with 0.25 cc 10,000U/ml heparin and anesthetized 10 minutes later with 0.15 cc 50 mg/ml sodium pentobarbital. The heart was rapidly excised and placed in ice cold Krebs-Henseleit buffer modified with 25 mM HEPES, 10 mM 2,3-Butanedione monoxime, 30 mM Taurine and the aorta was cannulated. The mounted heart was placed on a perfusion system at 37° C. The heart was perfused with calcium free modified Krebs-Henseleit buffer with 2 mg/ml crudely purified collagenase for 10 minutes. The heart was then removed from the cannula, the atria were removed and the ventricles were dissected into pieces approximately 2 mm in diameter. […]

The subject of assay [2] is sarcomere activation (Sarcometer cTnC biosensor) in live cardiac myocytes. The experiment in a line: Sarcometer Clover fluorescence (FRET) transient in live cardiac myocytes before and after treatment. Type of assay: cell-based, mouse. Conditions: 0.2 Hz stimulation; for Sarcometer kinetics / Clover peak fluorescence intensity (Sarcometer amplitude): 37° C. On the procedure:
as §1
Eight to twelve week old mice of both sexes were injected with 0.25 cc 10,000U/ml heparin and anesthetized 10 minutes later with 0.15 cc 50 mg/ml sodium pentobarbital. The heart was rapidly excised and placed in ice cold Krebs-Henseleit buffer modified with 25 mM HEPES, 10 mM 2,3-Butanedione monoxime, 30 mM Taurine and the aorta was cannulated. The mounted heart was placed on a perfusion system at 37° C. The heart was perfused with calcium free modified Krebs-Henseleit buffer with 2 mg/ml crudely purified collagenase for 10 minutes. The heart was then removed from the cannula, the atria were removed and the ventricles were dissected into pieces approximately 2 mm in diameter. The dissected ventricular tissue was then gently mechanically triturated in collagenase to liberate isolated myocytes. After brief low-speed centrifugation, isolated myocytes were resuspended in nominal calcium and 0.025 mg/ml bovine serum albumin in a modified Kreb-Henseleit buffer. After the final trituration step, calcium was added back to the buffer step wise until reaching a final concentration of 2 mM CaCl2. Myocytes were plated on laminin-coated (ThermoFisher cat#23017015) glass coverslips in M199 media (Gibco cat#31100-035) containing 5% fetal bovine serum and incubated for one hour at 37° C. with 5% CO2. After the one hour incubation, the media was changed to serum free M199 media and the myocytes were used for experiments within 5 hours.
For real-time simultaneous sarcomere length and Sarcometer biosensor measurements, a modified Ionoptix Calcium and Contractility system was used. Sarcomere length changes were detected at 240 Hz sampling rate and fluorescence measurements were detected at 1000 Hz sampling rate with two photomultipler tubes (FIG. 9). Measurements were made at 37° C. and a stimulation frequency of 0.2 Hz unless specified otherwise. For Sarcometer measurements, a Xenon arc lamp was used and filtered with a 500/10 nm hard-coated bandpass filter before entering the microscope turret. The microscope turret featured a 505 dichroic long pass filter. […]

Another assay addresses TnC hydrophobic patch (Homo sapiens, UniProt P63316). As to conditions: binds directly to the TnC hydrophobic patch; Oleszczuk et al. 2010; cited from earlier work.
Assay [3] has as its system cardiac myocyte calcium transients. The assay is described as follows: Fura-2 AM calcium transients in single cardiac myocytes. Format: cell-based, mouse. Conditions: 10 μM, n=4 pairs. As for the experimental part:
For real-time simultaneous sarcomere length and biosensor measurements, a modified Ionoptix Calcium and Contractility system was used. Sarcomere length changes were detected at 240 Hz sampling rate and fluorescence measurements were detected at 1000 Hz sampling rate with two photomultipler tubes. Measurements were made at 37° C. and a stimulation frequency of 0.2 Hz unless specified otherwise. For biosensor measurements, a Xenon arc lamp was used and filtered with a 500/10 nm hard-coated bandpass filter before entering the microscope turret. The microscope turret featured a 505 dichroic long pass filter. […] For calcium fluorescence measurements, the mouse myocytes were pre-loaded for 20 minutes in M199 solution containing 1 μM Fura-2 AM (ThermoFisher Cat #F1221), and a ten minute period was allowed for deesterification. For calcium fluorescence measurements the 360/380 nm ratio was determined. For each myocyte, several contractions were measured, averaged, and analyzed using the IonWizard software.
For real-time simultaneous sarcomere length and Sarcometer biosensor measurements, a modified Ionoptix Calcium and Contractility system was used. Sarcomere length changes were detected at 240 Hz sampling rate and fluorescence measurements were detected at 1000 Hz sampling rate with two photomultipler tubes (FIG. 9). […] For calcium fluorescence measurements the 360/380 nm ratio was determined. […]

Setting [4] is: 10 μM, before vs after treatment.
[5] abbreviates: 10 μM, before vs after treatment, listed as PNB.

On to `COC(=O)N1CCN(Cc2cccc(NC(=O)Nc3ccc(C)nc3)c2F)CC1` [Omecamtiv mecarbil], for which the SL contractile amplitude result in assay [1] (250 nM, n=14 pairs) was “increased contractile amplitude”; in assay [1] (250 nM, n=14 pairs, listed as OM), “significant increase SL amplitude”. The Sarcometer kinetics result in assay [2] (250 nM) was “no effect”. Also, the “Clover peak fluorescence intensity (Sarcometer amplitude)” value (from here on “Clover peak fluorescence intensity”) in assay [2] (250 nM, n=17 pairs) is “no difference in peak fluorescence intensity”; in assay [2] (250 nM, n=17 pairs, listed as OM), “no effect”.
As for `CC(C)NCC(O)c1ccc(O)c(O)c1` (centres unmarked) [isoproterenol], in assay [1] (50 nM, 30° C., before vs after treatment, n=34 pairs), the SL shortening amplitude result is listed as “increase myocyte contraction; also recorded: increased shortening amplitude”. In addition, the “sarcomere dynamics kinetics (SL relaxation)” value in assay [1] (50 nM, 30° C., n=34 pairs) is “speed SL relaxation; also recorded: faster kinetics”. Also, in assay [2] (50 nM, 30° C., n=24 pairs), the “Clover fluorescence kinetics (transient decay rate)” value was “significantly faster; also recorded: faster kinetics” and the “peak Clover fluorescence intensity” value is given as “increased peak Clover fluorescence intensity”.
Turning to `Cc1ccc2c(c1)C(=O)[C@]1(O)CCN(c3ccc([N+](=O)[O-])cc3)C1=N2` [para-Nitroblebbistatin], the figures for the SL contractile amplitude result in assay [1] (setting [4]) and in assay [1] (setting [5]) were “decreased contractile amplitude” and “effectively blocked contraction”, respectively. For the same compound, the Sarcometer kinetics result in assay [2] (10 μM) is given as “no significant effect”. Moreover, the “Clover peak fluorescence intensity” value is “no difference in peak fluorescence intensity” in assay [2] (setting [4]) and “no significant effect” in assay [2] (setting [5]).
Consider `NCCCCCCNS(=O)(=O)c1cccc2c(Cl)cccc12` [W7, N-aminohexyl-5-chloro-1-naphthalenesulfonamide], for which, in assay [1] (setting [4]), the SL contractile amplitude result is “reduced SL amplitude; also recorded: decreased contractile amplitude”. The “decrease of TnI switch peptide binding” value on TnC hydrophobic patch is given as 13 fold. In assay [2] (setting [4]), the “Clover peak fluorescence intensity” value is “significantly depressed; also recorded: decreased peak fluorescence intensity”. Moreover, the “calcium transient amplitude or kinetics” value in assay [3] is “unaltered; also recorded: no changes in calcium amplitude or kinetics”.
For `COc1ccc(-c2nc3ccc(C4=NNC(=O)CC4C)cc3[nH]2)cc1` (centres unmarked) [Pimobendan], in assay [1] (setting [4]), the SL contractile amplitude result is listed as “increased SL amplitude; also recorded: increased contractile amplitude”. Further, in assay [2] (setting [4]), the “Clover peak fluorescence intensity” value is “significant increase in Clover signal amplitude; also recorded: increased peak fluorescence intensity”.
